Target: T1, human RXFP1 (Homo sapiens, UniProt Q9HBX9)
T1 construct: expressed in transfected cells
T1 sequence (Q9HBX9 1-757): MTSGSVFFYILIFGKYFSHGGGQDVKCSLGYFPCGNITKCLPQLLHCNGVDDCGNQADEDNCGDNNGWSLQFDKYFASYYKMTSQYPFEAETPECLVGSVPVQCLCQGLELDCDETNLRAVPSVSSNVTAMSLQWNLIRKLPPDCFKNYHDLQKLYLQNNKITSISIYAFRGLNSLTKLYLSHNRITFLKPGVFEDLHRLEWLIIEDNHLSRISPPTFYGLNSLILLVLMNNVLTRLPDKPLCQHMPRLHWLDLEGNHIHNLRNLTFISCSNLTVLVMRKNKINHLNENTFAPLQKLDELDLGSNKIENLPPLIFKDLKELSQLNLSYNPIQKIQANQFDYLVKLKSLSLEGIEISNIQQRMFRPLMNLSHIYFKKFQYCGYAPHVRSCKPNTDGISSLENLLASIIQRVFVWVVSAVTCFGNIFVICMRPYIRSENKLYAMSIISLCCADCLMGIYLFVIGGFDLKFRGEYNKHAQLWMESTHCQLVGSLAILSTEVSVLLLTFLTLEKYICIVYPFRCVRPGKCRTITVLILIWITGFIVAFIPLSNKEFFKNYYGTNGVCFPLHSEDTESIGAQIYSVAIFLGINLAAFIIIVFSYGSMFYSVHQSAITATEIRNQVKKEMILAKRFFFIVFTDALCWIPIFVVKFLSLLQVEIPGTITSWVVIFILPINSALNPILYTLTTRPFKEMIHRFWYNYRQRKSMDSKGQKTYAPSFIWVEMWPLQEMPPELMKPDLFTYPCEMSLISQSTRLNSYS
Assay: hRXFP1 HEK293 cAMP assay (HTRF)
Type: cell-based
Conditions: HEK293 cells stably expressing human RXFP1; 30 min at rt; intracellular cAMP by HTRF
Procedure, shortened: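 Agonism is measured as cAMP by HTRF, quantified from a standard curve via the 665/590 nm ratio and fitted with a four-parameter logistic equation. Compounds (0.010 nM to 50 μM final, 2% DMSO) were applied for 30 min at rt to human RXFP1-expressing HEK293 cells in assay buffer containing 0.5 mM IBMX.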

SMILES	EC50 [nM]
COc1ccc(C2=NOC3(CCOC3=O)C2)cc1C(=O)Nc1c(C(=O)Nc2ccc(F)c(C(F)(F)F)c2)sc2cc(C(F)(F)F)ccc12 (stereo not shown) [Example 251, N-(4-fluoro-3-(trifluoromethyl)phenyl)-3-(2-methoxy-5-(6-oxo-1,7-dioxa-2-azaspiro[4.4]non-2-en-3-yl)benzamido)-6-(trifluoromethyl) benzo[b] thiophene-2-carboxamide]	222
O=C(Nc1c(C(=O)Nc2ccc(F)c(C(F)(F)F)c2)sc2cc(C(F)(F)F)ccc12)c1cc(C2=NOC3COCC23)ccc1F (stereo not shown) [Example 256, 3-(5-{3aH,4H,6H,6aH-furo[3,4-d][1,2]oxazol-3-yl}-2-fluorobenzamido)-N-[4-fluoro-3-(trifluoromethyl)phenyl]-6-(trifluoromethyl)-1-benzothiophene-2-carboxamide]	239
COc1ccc(C2=NOC3CC(NC(=O)C(C)(C)O)CC23)cc1C(=O)Nc1c(C(=O)Nc2ccc(F)c(C(F)(F)F)c2)sc2cc(C(F)(F)F)ccc12 (stereo not shown) [Example 260, N-[4-fluoro-3-(trifluoromethyl)phenyl]-3-{5-[5-(2-hydroxy-2-methyl-propanamido)-3aH,4H,5H,6H, 6aH-cyclopenta[d] [1,2]oxazol-3-yl]-2-methoxy-benzamido}-6-(trifluoromethyl)-1-benzothiophene-2-carboxamide]	1310
COc1ccc(C2=NOC3CC(NC(=O)CO)CC23)cc1C(=O)Nc1c(C(=O)Nc2ccc(F)c(C(F)(F)F)c2)sc2cc(C(F)(F)F)ccc12 (stereo not shown) [Example 261, N-[4-fluoro-3-(trifluoromethyl)phenyl]-3-{5-[5-(2-hydroxy-acetamido)-3aH,4H,5H,6H, 6aH-cyclopenta[d] [1,2]oxazol-3-yl]-2-methoxy-benzamido}-6-(trifluoromethyl)-1-benzothiophene-2-carboxamide]	90.7
COc1ccc(C2=NOC3(CCN(C(=O)C(C)(C)CO)CC3)C2)cc1C(=O)Nc1c(C(=O)Nc2ccc(F)c(C(F)(F)F)c2)sc2cc(C(F)(F)F)ccc12 [Example 269, N-(4-fluoro-3-(trifluoromethyl)phenyl)-3-(5-(8-(3-hydroxy-2,2-dimethyl-propanoyl)-1-oxa-2,8-diazaspiro[4.5]dec-2-en-3-yl)-2-methoxy-benzamido)-6-(trifluoromethyl) benzo[b] thiophene-2-carboxamide]	737
COc1ccc(C2=NOC3(CCN(C(=O)C(C)(C)O)CC3)C2)cc1C(=O)Nc1c(C(=O)Nc2ccc(F)c(C(F)(F)F)c2)sc2cc(C(F)(F)F)ccc12 [Example 270, N-(4-fluoro-3-(trifluoromethyl)phenyl)-3-(5-(8-(2-hydroxy-2-methylpropanoyl)-1-oxa-2,8-diazaspiro[4.5]dec-2-en-3-yl)-2-methoxy-benzamido)-6-(trifluoromethyl) benzo[b] thiophene-2-carboxamide]	532
COc1ccc(C2=NOC3(CCN(C(=O)CO)CC3)C2)cc1C(=O)Nc1c(C(=O)Nc2ccc(F)c(C(F)(F)F)c2)sc2cc(C(F)(F)F)ccc12 [Example 271, N-(4-fluoro-3-(trifluoromethyl)phenyl)-3-(5-(8-(2-hydroxyacetyl)-1-oxa-2,8-diazaspiro[4.5]dec-2-en-3-yl)-2-methoxy-benzamido)-6-(trifluoromethyl) benzo[b] thiophene-2-carboxamide]	379
COc1ccc(C2=NOC3(CCNCC3)C2)cc1C(=O)Nc1c(C(=O)Nc2ccc(F)c(C(F)(F)F)c2)sc2cc(C(F)(F)F)ccc12 [Example 272, N-(4-fluoro-3-(trifluoromethyl)phenyl)-3-(2-methoxy-5-(1-oxa-2,8-diazaspiro[4.5]dec-2-en-3-yl)benzamido)-6-(trifluoromethyl) benzo[b] thiophene-2-carboxamide]	900
COc1ccc(-c2cc(CN(C)C)on2)cc1C(=O)Nc1c(C(=O)Nc2ccc(F)c(C(F)(F)F)c2)sc2cc(C(F)(F)F)ccc12 [Example 273, 3-(5-(5-((dimethylamino)methyl)isoxazol-3-yl)-2-methoxy-benzamido)-N-(4-fluoro-3-(trifluoromethyl)phenyl)-6-(trifluoromethyl) benzo[b] thiophene-2-carboxamide]	857
COc1ccc(-c2noc(C(C)(C)CO)n2)cc1C(=O)Nc1c(C(=O)Nc2ccc(F)c(C(F)(F)F)c2)sc2cc(C(F)(F)F)ccc12 [Example 274, N-(4-fluoro-3-(trifluoromethyl)phenyl)-3-(5-(5-(1-hydroxy-2-methylpropan-2-yl)-1,2,4-oxadiazol-3-yl)-2-methoxy-benzamido)-6-(trifluoromethyl) benzo[b] thiophene-2-carboxamide]	278
COc1ccc(-c2cc([C@@H](C)O)on2)cc1C(=O)Nc1c(C(=O)Nc2ccc(F)c(C(F)(F)F)c2)sc2cc(C(F)(F)F)ccc12 [Example 275, (R)-N-(4-fluoro-3-(trifluoromethyl)phenyl)-3-(5-(5-(1-hydroxyethyl)isoxazol-3-yl)-2-methoxy-benzamido)-6-(trifluoromethyl) benzo[b] thiophene-2-carboxamide]	440
COc1ccc(-c2cc(C(C)(C)O)on2)cc1C(=O)Nc1c(C(=O)Nc2ccc(F)c(C(F)(F)F)c2)sc2cc(C(F)(F)F)ccc12 [Example 276, N-(4-fluoro-3-(trifluoromethyl)phenyl)-3-(5-(5-(2-hydroxypropan-2-yl)isoxazol-3-yl)-2-methoxy-benzamido)-6-(trifluoromethyl) benzo[b] thiophene-2-carboxamide]	204
COc1ccc(-c2nc(N3CCOCC3)no2)cc1C(=O)Nc1c(C(=O)Nc2ccc(F)c(C(F)(F)F)c2)sc2cc(C(F)(F)F)ccc12 [Example 277, N-[4-fluoro-3-(trifluoromethyl)phenyl]-3-{2-methoxy-5-[3-(morpholin-4-yl)-1,2,4-oxadiazol-5-yl]benzamido}-6-(trifluoromethyl)-1-benzothiophene-2-carboxamide]	398
COc1ccc(C2=NOC3(CCN(C(=O)CO)C3)C2)cc1C(=O)Nc1c(C(=O)Nc2ccc(F)c(C(F)(F)F)c2)sc2cc(C(F)(F)F)ccc12 (stereo not shown) [Example 278, N-[4-fluoro-3-(trifluoromethyl)phenyl]-3-{5-[7-(2-hydroxyacetyl)-1-oxa-2,7-diazaspiro[4.4]non-2-en-3-yl]-2-methoxy-benzamido}-6-(trifluoromethyl)-1-benzothiophene-2-carboxamide]	408
COc1ccc(C2=NOC3(CCN(C(=O)C(C)(C)O)C3)C2)cc1C(=O)Nc1c(C(=O)Nc2ccc(F)c(C(F)(F)F)c2)sc2cc(C(F)(F)F)ccc12 (stereo not shown) [Example 279, N-[4-fluoro-3-(trifluoromethyl)phenyl]-3-{5-[7-(2-hydroxy-2-methylpropanoyl)-1-oxa-2,7-diazaspiro[4.4]non-2-en-3-yl]-2-methoxy-benzamido}-6-(trifluoromethyl)-1-benzothiophene-2-carboxamide]	582
COc1ccc(C2=NC(C(=O)N3CC(C)(O)C3)CO2)cc1C(=O)Nc1c(C(=O)Nc2ccc(F)c(C(F)(F)F)c2)sc2cc(C(F)(F)F)ccc12 (stereo not shown) [Example 280, N-[4-fluoro-3-(trifluoromethyl)phenyl]-3-{5-[4-(3-hydroxy-3-methylazetidine-1-carbonyl)-4,5-dihydro-1,3-oxazol-2-yl]-2-methoxy-benzamido}-6-(trifluoromethyl)-1-benzothiophene-2-carboxamide]	44.1
COc1ccc(C2=NC(C(=O)N3CC(C(C)(C)O)C3)CO2)cc1C(=O)Nc1c(C(=O)Nc2ccc(F)c(C(F)(F)F)c2)sc2cc(C(F)(F)F)ccc12 (stereo not shown) [Example 281, N-[4-fluoro-3-(trifluoromethyl)phenyl]-3-(5-{4-[3-(2-hydroxypropan-2-yl)azetidine-1-carbonyl]-4,5-dihydro-1,3-oxazol-2-yl}-2-methoxy-benzamido)-6-(trifluoromethyl)-1-benzothiophene-2-carboxamide]	95.1
COc1ccc(C2=NC(C(=O)N3CC(CO)C3)CO2)cc1C(=O)Nc1c(C(=O)Nc2ccc(F)c(C(F)(F)F)c2)sc2cc(C(F)(F)F)ccc12 (stereo not shown) [Example 282, N-[4-fluoro-3-(trifluoromethyl)phenyl]-3-(5-{4-[3-(hydroxymethyl)azetidine-1-carbonyl]-4,5-dihydro-1,3-oxazol-2-yl}-2-methoxy-benzamido)-6-(trifluoromethyl)-1-benzothiophene-2-carboxamide]	9.6
COc1ccc(C2=NOC3(C2)CN(C(=O)C(C)(C)CO)C3)cc1C(=O)Nc1c(C(=O)Nc2ccc(F)c(C(F)(F)F)c2)sc2cc(C(F)(F)F)ccc12 [Example 283, N-(4-fluoro-3-(trifluoromethyl)phenyl)-3-(5-(2-(3-hydroxy-2,2-dimethyl-propanoyl)-5-oxa-2,6-diazaspiro[3.4]oct-6-en-7-yl)-2-methoxy-benzamido)-6-(trifluoromethyl) benzo[b] thiophene-2-carboxamide]	1120
